The supplement of paper PMC4862054
Values joined by “and” are separate entries in the source; they are usually repeats but may differ in a detail not shown here. Equal values may be shown once.

Key:
Assay in all cases: normalised viability (% of control), CellTiter-Blue; higher = more viable cells (about 100 = DMSO control)
MDA-MB-453 [1] = settings: 3000 nM; incubation time: 72 h
Summary of the method: (§1)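 Compound dissolved in 5 µl medium was pre-loaded into 384-well plates, and breast cancer cell lines in 20 µl suspension were seeded on top and incubated 72 h. After adding 2.5 µl CellTiter-Blue reagent for 2 h at 37 °C, fluorescence was read at 560/590 nm. Plates were normalised to vehicle (100) and a positive kill control (0), with Z'-factor quality control. Each value is normalised viability at a single listed concentration from the series.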

CAL-148 [2] = settings: 3000 nM; incubation time: 72 h
Summary of the method: as §1

DU-4475 [3] = settings: 3000 nM; incubation time: 72 h
Summary of the method: as §1

CAL-85-1 [4] = settings: 3000 nM; incubation time: 72 h
Summary of the method: as §1

HDQ-P1 = settings: 10000 nM; incubation time: 72 h
Protocol: (§2)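 DSRT, CellTiter-Blue viability, 72 h incubation. Signal is normalised to DMSO and benzethonium chloride controls. Value is the normalised response at dose 9.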

DU-4475 [5] = settings: 10000 nM; incubation time: 72 h
Protocol: as §2

CAL-51 [6] = settings: 10000 nM; incubation time: 72 h
Protocol: as §2

HCC1599 = settings: incubation time: 72 h
Summary of the method: as §1

MDA-MB-231 = settings: incubation time: 72 h
Summary of the method: as §1

BT-549 = settings: incubation time: 72 h
Summary of the method: as §1

MDA-MB-453 [7] = settings: incubation time: 72 h
Summary of the method: as §1

MDA-MB-468 = settings: incubation time: 72 h
Summary of the method: as §1

HCC1937 = settings: incubation time: 72 h
Summary of the method: as §1

DU-4475 [8] = settings: incubation time: 72 h
Summary of the method: as §1

MFM-223 = settings: incubation time: 72 h
Summary of the method: as §1

CAL-85-1 [9] = settings: incubation time: 72 h
Summary of the method: as §1

CAL-120 = settings: incubation time: 72 h
Summary of the method: as §1

SK-BR-3 = settings: incubation time: 72 h
Summary of the method: as §1

Hs578T = settings: incubation time: 72 h
Summary of the method: as §1

BT-474 = settings: incubation time: 72 h
Summary of the method: as §1

CAL-51 [10] = settings: incubation time: 72 h
Summary of the method: as §1

MDA-MB-436 = settings: incubation time: 72 h
Summary of the method: as §1

HCC1143 = settings: incubation time: 72 h
Summary of the method: as §1

MDA-MB-453 [11] = settings: 10000 nM; incubation time: 72 h
Protocol: as §2

CAL-148 [12] = settings: 10000 nM; incubation time: 72 h
Protocol: as §2

CAL-85-1 [13] = settings: 10000 nM; incubation time: 72 h
Protocol: as §2

SMILES: Nc1ncn([C@H]2C[C@H](O)[C@@H](CO)O2)c(=O)n1 [Decitabine]
- normalised viability (MDA-MB-453 [1]): 87% and 93.1%
- normalised viability (CAL-148 [2]): 81.2% and 73.7%
- normalised viability (DU-4475 [3]): 69.8% and 78.9%
- normalised viability (CAL-85-1 [4]): 83% and 88.5%
- normalised viability (HDQ-P1): 97.9% and 90.5%
- normalised viability (DU-4475 [5]): 53.4% and 64.7%
- normalised viability (CAL-51 [6]): 66.7% and 70.4%
- normalised viability (HCC1599; 10 nM): 112% and 107%
- normalised viability (HCC1599; 10000 nM): 82% and 106%
- normalised viability (MDA-MB-231; 10 nM): 86.9% and 92.8%
- normalised viability (MDA-MB-231; 1000 nM): 74% and 92.3%
- normalised viability (MDA-MB-231; 10000 nM): 69.8% and 71.6%
- normalised viability (BT-549; 10 nM): 94.6% and 101%
- normalised viability (BT-549; 1000 nM): 81.7% and 89.3%
- normalised viability (BT-549; 10000 nM): 57.7% and 65.1%
- normalised viability (MDA-MB-453 [7]; 3 nM): 107% and 118%
- normalised viability (MDA-MB-468; 10 nM): 109% and 102%
- normalised viability (MDA-MB-468; 1000 nM): 28.7% and 29.4%
- normalised viability (MDA-MB-468; 10000 nM): 27% and 29.1%
- normalised viability (HCC1937; 10 nM): 120% and 99%
- normalised viability (HCC1937; 1000 nM): 77.2% and 76.6%
- normalised viability (HCC1937; 10000 nM): 69.2% and 62.8%
- normalised viability (DU-4475 [8]; 3 nM): 110% and 98.7%
- normalised viability (DU-4475 [8]; 30 nM): 81.5% and 97.7%
- normalised viability (DU-4475 [8]; 100 nM): 86.9% and 96.8%
- normalised viability (MFM-223; 10 nM): 80.2% and 104%
- normalised viability (MFM-223; 1000 nM): 84.7% and 102%
- normalised viability (MFM-223; 10000 nM): 90.1% and 98.6%
- normalised viability (CAL-85-1 [9]; 3 nM): 91.9% and 103%
- normalised viability (CAL-85-1 [9]; 30 nM): 83.4% and 91.2%
- normalised viability (CAL-85-1 [9]; 100 nM): 93.6% and 93.9%
- normalised viability (CAL-120; 10 nM): 88.1% and 89.4%
- normalised viability (CAL-120; 1000 nM): 85.4% and 89%
- normalised viability (CAL-120; 10000 nM): 58.3% and 62.3%
- normalised viability (SK-BR-3; 10 nM): 84.5% and 98.1%
- normalised viability (SK-BR-3; 1000 nM): 90.2% and 88.1%
- normalised viability (SK-BR-3; 10000 nM): 69.1% and 74.5%
- normalised viability (Hs578T; 10 nM): 103% and 112%
- normalised viability (Hs578T; 1000 nM): 92.5% and 114%
- normalised viability (Hs578T; 10000 nM): 83.6% and 93.2%
- normalised viability (BT-474; 10 nM): 109% and 104%
- normalised viability (BT-474; 1000 nM): 89.4% and 86.7%
- normalised viability (BT-474; 10000 nM): 95.1% and 79.7%
- normalised viability (CAL-51 [10]; 3 nM): 116% and 108%
- normalised viability (CAL-51 [10]; 30 nM): 117% and 101%
- normalised viability (CAL-51 [10]; 100 nM): 101% and 96.8%
- normalised viability (MDA-MB-436; 10 nM): 85% and 75%
- normalised viability (MDA-MB-436; 1000 nM): 69.6% and 68.2%
- normalised viability (MDA-MB-436; 10000 nM): 70.5% and 71.4%
- normalised viability (HCC1143; 10 nM): 82.7% and 80.8%
- normalised viability (HCC1143; 1000 nM): 68.5% and 78.8%
- normalised viability (HCC1143; 10000 nM): 56% and 59.8%

SMILES: Nc1ccccc1NC(=O)c1ccc(CNC(=O)OCc2cccnc2)cc1 [Entinostat]
- normalised viability (MDA-MB-453 [1]): 50.3%
- normalised viability (CAL-148 [2]): 58.7%
- normalised viability (DU-4475 [3]): 103%
- normalised viability (CAL-85-1 [4]): 53.7%
- normalised viability (MDA-MB-453 [11]): 11.2%
- normalised viability (HDQ-P1): 71.2%
- normalised viability (CAL-148 [12]): 9.38%
- normalised viability (DU-4475 [5]): 0.48%
- normalised viability (CAL-85-1 [13]): 20.7%
- normalised viability (CAL-51 [6]): 29.6%
- normalised viability (HCC1599; 10 nM): 122%
- normalised viability (HCC1599; 1000 nM): 86.6%
- normalised viability (HCC1599; 10000 nM): 19.6%
- normalised viability (MDA-MB-231; 10 nM): 99.2%
- normalised viability (MDA-MB-231; 1000 nM): 78.7%
- normalised viability (MDA-MB-231; 10000 nM): 37.7%
- normalised viability (BT-549; 10 nM): 110%
- normalised viability (BT-549; 1000 nM): 102%
- normalised viability (BT-549; 10000 nM): 61.4%
- normalised viability (MDA-MB-453 [7]; 3 nM): 132%
- normalised viability (MDA-MB-453 [7]; 30 nM): 130%
- normalised viability (MDA-MB-453 [7]; 100 nM): 110%
- normalised viability (MDA-MB-468; 10 nM): 102%
- normalised viability (MDA-MB-468; 1000 nM): 79.8%
- normalised viability (MDA-MB-468; 10000 nM): 22.9%
- normalised viability (HCC1937; 10 nM): 124%
- normalised viability (HCC1937; 1000 nM): 82.4%
- normalised viability (HCC1937; 10000 nM): 56.8%
- normalised viability (DU-4475 [8]; 3 nM): 117%
- normalised viability (DU-4475 [8]; 30 nM): 117%
- normalised viability (DU-4475 [8]; 100 nM): 105%
- normalised viability (MFM-223; 10 nM): 110%
- normalised viability (MFM-223; 1000 nM): 93.6%
- normalised viability (MFM-223; 10000 nM): 19.9%
- normalised viability (CAL-85-1 [9]; 3 nM): 98.1%
- normalised viability (CAL-85-1 [9]; 30 nM): 100%
- normalised viability (CAL-85-1 [9]; 100 nM): 99.6%
- normalised viability (CAL-120; 10 nM): 90.1%
- normalised viability (CAL-120; 1000 nM): 57.9%
- normalised viability (CAL-120; 10000 nM): 30.8%
- normalised viability (SK-BR-3; 10 nM): 108%
- normalised viability (SK-BR-3; 1000 nM): 45.2%
- normalised viability (SK-BR-3; 10000 nM): 2.8%
- normalised viability (Hs578T; 10 nM): 100%
- normalised viability (Hs578T; 1000 nM): 97.6%
- normalised viability (Hs578T; 10000 nM): 25%
- normalised viability (BT-474; 10 nM): 108%
- normalised viability (BT-474; 1000 nM): 97%
- normalised viability (BT-474; 10000 nM): 31.9%
- normalised viability (CAL-51 [10]; 3 nM): 116%
- normalised viability (CAL-51 [10]; 30 nM): 106%
- normalised viability (CAL-51 [10]; 100 nM): 109%
- normalised viability (MDA-MB-436; 10 nM): 115%
- normalised viability (MDA-MB-436; 1000 nM): 96%
- normalised viability (MDA-MB-436; 10000 nM): 52.8%
- normalised viability (HCC1143; 10 nM): 84.5%
- normalised viability (HCC1143; 1000 nM): 89.6%
- normalised viability (HCC1143; 10000 nM): 31.2%
